Common to all, as to assay: NCI tumour cell line growth inhibition, 48 h
The test system of assay [1] is 786-0 renal.
The subject of assay [2] is HCC-2998 colon.
Assay [3] deals with HOP-92 NSCLC.
The test system of assay [4] is MDA-MB-435.
For assay [5], the system named is NCI/ADR-RES ovarian.
For assay [6], the system named is OVCAR-3 ovarian.
For assay [7], the system named is OVCAR-4 ovarian.
In assay [8] the test system is OVCAR-8 ovarian.
Assay [9] deals with MALME-3M melanoma.
For assay [10], the system named is HS 578T breast.

Consider 23 compounds from PubChem BioAssay (NCI).

Each structure is given as a SMILES string.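 A five-concentration, 48-hour dose response in 96-well plates underlies each endpoint, interpolated linearly between surrounding concentrations. At the TGI there is no net growth.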

Regarding `CC1(C)OCC2OC3([C@@H]4OC(C)(C)O[C@H]4CO)OC(C)(C)OC3C2O1` (stereo not given in full), the TGI in [1], in assay [2], in assay [3], in assay [4], in [5] and in assay [6] was above 100 µM each time. Also, the TGI in [7] and in [8] was above 100 µM in each case.

On to `COC(=O)C1=C(C(=O)OC)SC(=CC#CC=C2SC(C(=O)OC)=C(C(=O)OC)S2)S1`, for which the TGI was 18.2 µM in [1]; above 100 µM in [2]; 35.2 µM in assay [3]; 64.1 µM in assay [9]; 17 µM in assay [6]; 35.3 µM in assay [7]. In assay [8], this compound yielded a TGI of 20.8 µM.

Regarding `CCC1=C(C(C)=O)[C@@H]2CCCCC[C@@H](C(=O)OC)C2C1=O` (stereo not given in full), the TGI in assay [1], in [2], in assay [3], in assay [9], in [7] and in [8] was above 100 µM in each case.

Take `CC1C(NNc2ccccc2)Oc2cc3c(cc2C1c1ccccc1O)OCO3` (stereo not given): the TGI in [1] was determined as 44.3 µM; in assay [2], 17 µM; in assay [3] it was 26.9 µM; in assay [10] it was 42.7 µM; in assay [9], 10.4 µM; in assay [4], 12.5 µM. In addition, the TGI amounted to 24.1 µM in [6] and 86.8 µM in [8].

With `N#C/C(=C/n1c(=S)[nH]c2ccc([N+](=O)[O-])cc21)C(N)=O`, the TGI in assay [1], in assay [3], in [10], in [9], in assay [4] and in assay [5] was above 100 µM throughout. Further, the TGI in assay [6], in [7] and in [8] was above 100 µM in each case.

For the compound `CC(C)N1CC2CC(CN(C(=O)c3ccccc3)C2)C1`, the TGI in assay [1], in [2], in assay [3], in [9], in [6] and in [7] was above 100 µM each time. Further, the TGI in assay [8] was above 100 µM.

On to `N#C/C(C(=O)Nc1ccc(Cl)cc1)=C(/N)N1CCCC1`, for which the TGI in assay [1], in assay [2], in assay [3], in assay [4], in assay [5] and in assay [6] was above 100 µM each time. In [8], this compound had a TGI above 100 µM.

Regarding `COc1cc(C(c2c(O)c3ccccc3oc2=O)c2c(O)c3ccccc3oc2=O)cc(Br)c1O`, the TGI in [1] was determined as 37.8 µM; in [3] it was 26.2 µM; in assay [10], 51.8 µM; in assay [9], 31 µM; in assay [4] it was 51.6 µM; in [5], 53.1 µM. The figures for the TGI in [6], in assay [7] and in assay [8] were 30.9 µM, 30.9 µM and 32.3 µM, respectively.

For the compound `C1=C2C3=[N+](CCCCC3)CC2Cc2ccsc21` (stereo not given), the TGI in [1], in [3], in assay [10], in [9], in [4] and in [5] was above 100 µM throughout. For the same compound, the TGI in assay [6], in assay [7] and in assay [8] was above 100 µM in each case.

With `Cc1cc(C)c2c(=O)cc(-c3cccc(F)c3)[nH]c2n1`, the TGI in [1] was above 64.2 µM; in [2] it was 3.94 µM; in [3] it was 0.489 µM; in assay [10], 3.36 µM; in assay [9], above 100 µM; in assay [6] it was 0.318 µM. The TGI in [7] and in [8] was above 100 µM in each case.

Take `COC(=O)C1C(C(=O)OC)C2(OC(c3ccc(Cl)cc3)=CC2=O)C12OC(c1ccc(Cl)cc1)=CC2=O` (stereo not given): the TGI in [1] was 41 µM; in [2], 36.8 µM; in [3], 37.6 µM; in assay [10] it was above 100 µM; in assay [9] it was 31.6 µM; in assay [4], above 100 µM. Further, the TGI in [6] turned out to be 42 µM; in assay [7] it was 64.1 µM.

For the compound `CSC(SC)=C(C(=O)O)P(=O)(O)O`, the TGI in [1], in assay [2], in assay [3], in assay [10], in assay [9] and in assay [5] was above 100 µM in each case. Also, the TGI in assay [6], in assay [7] and in [8] was above 100 µM in each case.

With `CCOc1ccc(Nc2nc(N)nc(N)c2N)cc1`, the TGI was 52.3 µM in assay [1]; above 100 µM in [3]; 45.7 µM in assay [10]; 66.2 µM in assay [9]; 65 µM in [4]; above 100 µM in assay [5]. The TGI in assay [6], in assay [7] and in assay [8] was above 100 µM each time.

Consider `CCCCC1=C(C(=O)N2CCOCC2)C2(OCCO2)C1=O`, for which the TGI in assay [1] was 40.6 µM; in assay [3], 66.4 µM; in assay [10] it was above 100 µM; in [9], 57 µM; in assay [4], 50.8 µM; in assay [5] it was 57.2 µM. Moreover, the TGI was 39.7 µM in [6], above 100 µM in assay [7] and 58.3 µM in [8].

For `COc1ccc(Nc2nc(N)c(C(=O)c3c[nH]c4ccccc34)s2)cc1`, the TGI was 13.6 µM in assay [1]; 29.3 µM in assay [3]; 21.6 µM in assay [9]; 19.4 µM in assay [5]; 4.14 µM in assay [6]; above 100 µM in assay [7]. The compound further registered a TGI in [8] above 100 µM.

`C=C1C(OC2O[C@@H]3O[C@@]4(C)CC[C@H]5[C@H](C)CC[C@@H](C2=C)[C@@]35O4)O[C@@H]2O[C@@]3(C)CC[C@H]4[C@H](C)CC[C@@H]1[C@@]24O3` (stereo not given in full): the TGI in [1], in assay [2], in assay [3], in assay [10], in assay [9] and in assay [4] was above 50 µM throughout. Also, the TGI in assay [6] and in assay [7] was above 50 µM in each case.

`NCCCCNCCCNC(=O)c1nc(-c2nc(CCN)sc2Cl)sc1Cl`: the TGI in assay [2] is above 100 µM; in [3] it was above 100 µM; in assay [9], above 100 µM; in assay [6], above 100 µM; in assay [7], 71.8 µM; in assay [8], above 100 µM.

Turning to `CN(C)CCNC(=O)c1cc(Cl)cc2ccc(-c3ccccc3)nc12`, the TGI in [2] amounted to 13.8 µM; in assay [3], 9.35 µM; in assay [9] it was 8.26 µM; in assay [5], 10.9 µM; in assay [6] it was 15.8 µM; in assay [7] it was 13.7 µM. Also, in [8], the TGI is 13.2 µM.

In the case of `O=S(=O)(O)c1ccc(N=Nc2ccc(N=Nc3ccc(/C=C/c4ccc(N=[N+]([O-])c5ccc(/C=C/c6ccc(N=Nc7ccc(N=Nc8ccc(S(=O)(=O)O)cc8)cc7)cc6S(=O)(=O)O)c(S(=O)(=O)O)c5)cc4S(=O)(=O)O)c(S(=O)(=O)O)c3)cc2)cc1`, the TGI in assay [2], in assay [3], in assay [9], in assay [5], in assay [6] and in assay [7] was above 100 µM in each case. In addition, in assay [8], the TGI is above 100 µM.

As to `Cc1ccc(C(=O)N/N=C(\N=Nc2ccccc2)c2ccc(N(C)C)cc2)cc1`, the TGI in [1], in [2], in assay [3], in assay [4], in assay [5] and in assay [6] was above 100 µM each time. Further, the TGI in assay [7] and in assay [8] was above 100 µM each time.

On to `CCOC(=O)C1(C#N)C(c2ccccc2)CC(O)(c2ccc(Cl)cc2)C(C(=O)c2ccc(Cl)cc2)C1c1ccccc1` (stereo not given), for which the TGI in assay [1], in assay [2], in assay [9], in assay [6], in [7] and in assay [8] was above 100 µM in each case.

On to `Cc1cc(C)nc(NS(=O)(=O)c2ccc(Nc3c4ccccc4nc4c(C(=O)N5CCN(CCOS(C)(=O)=O)CC5)cccc34)cc2)n1`, for which the TGI in assay [2], in assay [3], in [9], in [6], in assay [7] and in assay [8] was above 100 µM in each case.

As for `CCCCOc1ccc(OCCCCCCCCCC[N+](C)(C)C)cc1`, the TGI in assay [2] was 6.28 µM; in assay [3], 3.65 µM; in assay [9], 16 µM; in assay [5], above 100 µM; in assay [6] it was 7.89 µM; in [7], 14.8 µM. In assay [8], the TGI amounted to 22 µM.
